Data as given in ChEMBL document CHEMBL1201862, “PubChem BioAssay data set” (2004).
Values belong to the molecule of their own block, whether it stands above or below them. Activity calls are given as the source filed them.

Key:
Assay type in all cases: functional
[1] = biological target: Proto-oncogene tyrosine-protein kinase receptor Ret (Homo sapiens, UniProt P07949);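 also: measured within a kinome-wide profiling panel, RET as the panel member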
[2] = biological target: Inhibitor of nuclear factor kappa-B kinase subunit epsilon (Homo sapiens, UniProt Q14164); experiment: Navigating the Kinome. Panel member name: IKBKE
LIM domain kinase 1 = LIM domain kinase 1 (Homo sapiens, UniProt P53667); experiment: Navigating the Kinome. Panel member name: LIMK1
[3] = biological target: Dual specificity protein kinase CLK4 (Homo sapiens, UniProt Q9HAZ1)
[4] = biological target: Interleukin-1 receptor-associated kinase 1 (Homo sapiens, UniProt P51617);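 also: IRAK1 tested as one member of a kinome panel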
[5] = biological target: Receptor tyrosine-protein kinase erbB-2 (Homo sapiens, UniProt P04626); experiment: Navigating the Kinome. Panel member name: ERBB2
[6] = biological target: Proto-oncogene tyrosine-protein kinase Src (Homo sapiens, UniProt P12931);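 also: SRC entry within a kinome-wide kinase profiling panel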
[7] = biological target: Mitogen-activated protein kinase 1 (Homo sapiens, UniProt P28482)
[8] = biological target: Casein kinase I isoform alpha (Homo sapiens, UniProt P48729)
[9] = biological target: Mitogen-activated protein kinase kinase kinase kinase 5 (Homo sapiens, UniProt Q9Y4K4);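 also: measured as one member of a kinome-spanning kinase panel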
[10] = biological target: MAP kinase-activated protein kinase 3 (Homo sapiens, UniProt Q16644);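 also: value comes from a kinome-wide profiling panel in which MAPKAPK3 is one of the panel members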
[11] = biological target: Receptor tyrosine-protein kinase erbB-4 (Homo sapiens, UniProt Q15303);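 also: ERBB4 member of a kinome-wide kinase profiling panel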
[12] = biological target: Serine/threonine-protein kinase pim-3 (Homo sapiens, UniProt Q86V86);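 also: value obtained as one member of a broad kinase panel profiling effort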
[13] = biological target: Dual specificity tyrosine-phosphorylation-regulated kinase 3 (Homo sapiens, UniProt O43781);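 also: measured as one member of a broad kinase panel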
SRSF protein kinase 1 = SRSF protein kinase 1 (Homo sapiens, UniProt Q96SB4);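 also: measured as one member of a kinome-wide kinase profiling panel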
[14] = biological target: Tyrosine-protein kinase Srms (Homo sapiens, UniProt Q9H3Y6);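 also: SRMS measured as one member of a kinome-wide kinase profiling panel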
[15] = biological target: Casein kinase II subunit alpha (Homo sapiens, UniProt P68400)
[16] = biological target: T1, Sentrin-specific protease 6 (Homo sapiens, UniProt Q9GZR1);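 also: Luminescence-based dose-response confirmatory assay of SENP6 inhibition, following up an ultra-high-throughput screen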
T1 sequence (Q9GZR1 whole entry): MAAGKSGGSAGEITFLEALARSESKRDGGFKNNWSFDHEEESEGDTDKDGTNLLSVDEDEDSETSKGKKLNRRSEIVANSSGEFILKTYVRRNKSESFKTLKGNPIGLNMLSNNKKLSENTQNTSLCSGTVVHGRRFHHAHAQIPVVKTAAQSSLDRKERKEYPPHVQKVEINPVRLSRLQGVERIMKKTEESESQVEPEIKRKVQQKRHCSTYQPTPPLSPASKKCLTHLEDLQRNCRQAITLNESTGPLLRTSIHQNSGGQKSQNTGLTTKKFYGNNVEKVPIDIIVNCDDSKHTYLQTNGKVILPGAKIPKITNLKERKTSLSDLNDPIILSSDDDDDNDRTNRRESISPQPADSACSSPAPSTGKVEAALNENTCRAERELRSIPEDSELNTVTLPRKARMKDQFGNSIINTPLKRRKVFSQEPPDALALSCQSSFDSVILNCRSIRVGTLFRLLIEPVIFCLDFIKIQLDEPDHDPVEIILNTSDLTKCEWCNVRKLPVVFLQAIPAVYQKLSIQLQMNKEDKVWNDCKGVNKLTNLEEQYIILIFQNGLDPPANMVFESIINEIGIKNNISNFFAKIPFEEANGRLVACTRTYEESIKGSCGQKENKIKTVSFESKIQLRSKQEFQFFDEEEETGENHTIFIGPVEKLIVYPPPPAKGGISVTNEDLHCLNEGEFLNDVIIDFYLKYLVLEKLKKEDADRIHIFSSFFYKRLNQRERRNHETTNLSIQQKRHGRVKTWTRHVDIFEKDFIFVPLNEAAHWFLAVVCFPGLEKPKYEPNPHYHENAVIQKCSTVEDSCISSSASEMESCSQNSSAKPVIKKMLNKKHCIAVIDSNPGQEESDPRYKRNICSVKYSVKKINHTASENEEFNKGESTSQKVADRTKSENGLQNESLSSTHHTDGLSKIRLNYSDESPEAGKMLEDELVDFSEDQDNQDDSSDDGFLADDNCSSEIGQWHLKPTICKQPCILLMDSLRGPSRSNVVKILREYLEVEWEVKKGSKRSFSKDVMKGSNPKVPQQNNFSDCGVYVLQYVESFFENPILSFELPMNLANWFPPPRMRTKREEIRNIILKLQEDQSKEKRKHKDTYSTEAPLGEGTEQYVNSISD

Caspase-3 = biological target: T2, Caspase-3 (Homo sapiens, UniProt P42574);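 also: Dose-response selectivity test against caspase-3 for candidate inhibitors of sentrin-specific proteases (SENPs)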
T2 sequence (P42574 whole entry): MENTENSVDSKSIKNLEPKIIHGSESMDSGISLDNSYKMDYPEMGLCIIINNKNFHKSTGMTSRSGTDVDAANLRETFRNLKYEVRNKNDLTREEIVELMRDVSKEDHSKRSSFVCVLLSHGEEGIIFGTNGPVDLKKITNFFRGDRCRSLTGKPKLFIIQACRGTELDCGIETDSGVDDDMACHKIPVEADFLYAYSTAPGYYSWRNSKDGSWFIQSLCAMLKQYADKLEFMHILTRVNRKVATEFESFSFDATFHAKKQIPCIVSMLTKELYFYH

Sequence of Receptor tyrosine-protein kinase erbB-4 (Q15303 whole entry): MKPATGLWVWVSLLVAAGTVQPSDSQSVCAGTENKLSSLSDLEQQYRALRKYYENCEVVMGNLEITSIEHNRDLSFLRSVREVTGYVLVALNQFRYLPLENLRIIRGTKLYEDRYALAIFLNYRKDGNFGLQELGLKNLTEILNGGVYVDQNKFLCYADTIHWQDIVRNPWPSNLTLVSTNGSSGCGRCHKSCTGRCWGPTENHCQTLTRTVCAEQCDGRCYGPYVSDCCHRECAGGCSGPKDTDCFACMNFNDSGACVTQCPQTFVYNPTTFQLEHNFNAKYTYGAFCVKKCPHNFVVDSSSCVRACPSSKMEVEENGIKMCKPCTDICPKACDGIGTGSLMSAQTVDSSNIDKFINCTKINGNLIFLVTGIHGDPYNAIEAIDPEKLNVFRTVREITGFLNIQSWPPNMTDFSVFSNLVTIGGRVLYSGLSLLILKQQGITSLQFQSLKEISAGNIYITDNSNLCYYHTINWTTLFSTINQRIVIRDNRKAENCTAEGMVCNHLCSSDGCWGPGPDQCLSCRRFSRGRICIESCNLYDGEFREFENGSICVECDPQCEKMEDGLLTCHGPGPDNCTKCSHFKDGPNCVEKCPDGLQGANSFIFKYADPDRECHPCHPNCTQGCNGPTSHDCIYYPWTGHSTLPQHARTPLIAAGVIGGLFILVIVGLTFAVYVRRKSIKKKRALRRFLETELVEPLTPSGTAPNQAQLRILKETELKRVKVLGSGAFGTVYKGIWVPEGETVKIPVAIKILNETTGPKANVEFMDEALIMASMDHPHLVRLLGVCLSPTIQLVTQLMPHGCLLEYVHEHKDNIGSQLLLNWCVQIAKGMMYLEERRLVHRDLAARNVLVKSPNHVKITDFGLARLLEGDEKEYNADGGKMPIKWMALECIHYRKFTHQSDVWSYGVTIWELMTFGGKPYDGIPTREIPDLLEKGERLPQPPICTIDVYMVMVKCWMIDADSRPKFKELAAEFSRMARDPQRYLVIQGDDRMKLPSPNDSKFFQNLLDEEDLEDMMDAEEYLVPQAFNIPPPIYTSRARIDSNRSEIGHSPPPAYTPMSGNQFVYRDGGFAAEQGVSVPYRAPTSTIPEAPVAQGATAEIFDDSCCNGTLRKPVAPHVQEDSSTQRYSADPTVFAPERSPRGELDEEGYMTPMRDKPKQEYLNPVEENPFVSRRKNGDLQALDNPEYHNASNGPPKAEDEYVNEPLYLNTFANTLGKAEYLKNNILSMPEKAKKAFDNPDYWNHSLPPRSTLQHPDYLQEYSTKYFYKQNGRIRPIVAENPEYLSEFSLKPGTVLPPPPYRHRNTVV
Sequence of Proto-oncogene tyrosine-protein kinase receptor Ret (P07949 whole entry): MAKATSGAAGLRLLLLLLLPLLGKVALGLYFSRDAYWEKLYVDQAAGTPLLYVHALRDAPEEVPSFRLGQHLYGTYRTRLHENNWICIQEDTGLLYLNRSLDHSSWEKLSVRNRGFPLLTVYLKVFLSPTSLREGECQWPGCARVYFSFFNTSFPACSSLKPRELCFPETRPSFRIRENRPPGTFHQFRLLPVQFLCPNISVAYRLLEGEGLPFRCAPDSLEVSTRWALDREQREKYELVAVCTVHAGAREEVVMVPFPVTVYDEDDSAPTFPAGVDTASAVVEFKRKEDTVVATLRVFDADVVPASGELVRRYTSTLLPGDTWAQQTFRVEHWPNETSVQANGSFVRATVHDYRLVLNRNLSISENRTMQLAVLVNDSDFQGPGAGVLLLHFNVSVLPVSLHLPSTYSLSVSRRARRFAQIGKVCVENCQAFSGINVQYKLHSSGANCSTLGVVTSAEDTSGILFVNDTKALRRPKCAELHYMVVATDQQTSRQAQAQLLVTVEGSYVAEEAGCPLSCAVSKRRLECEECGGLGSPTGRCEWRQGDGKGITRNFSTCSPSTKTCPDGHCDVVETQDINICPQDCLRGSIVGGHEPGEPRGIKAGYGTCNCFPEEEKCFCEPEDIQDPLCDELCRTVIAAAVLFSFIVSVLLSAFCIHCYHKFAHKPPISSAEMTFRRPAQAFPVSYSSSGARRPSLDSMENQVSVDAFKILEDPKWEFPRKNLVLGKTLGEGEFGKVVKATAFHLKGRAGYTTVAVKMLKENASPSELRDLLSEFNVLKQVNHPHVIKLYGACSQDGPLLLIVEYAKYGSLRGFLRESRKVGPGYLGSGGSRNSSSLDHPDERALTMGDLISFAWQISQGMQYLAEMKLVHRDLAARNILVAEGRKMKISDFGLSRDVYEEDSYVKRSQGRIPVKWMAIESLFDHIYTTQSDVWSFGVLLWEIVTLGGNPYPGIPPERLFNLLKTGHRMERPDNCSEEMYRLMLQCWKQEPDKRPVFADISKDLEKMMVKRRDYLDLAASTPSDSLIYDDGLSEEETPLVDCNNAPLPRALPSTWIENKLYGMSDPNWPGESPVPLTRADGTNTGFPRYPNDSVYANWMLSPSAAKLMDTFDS
Sequence of Inhibitor of nuclear factor kappa-B kinase subunit epsilon (Q14164 whole entry, the tested form may be a part): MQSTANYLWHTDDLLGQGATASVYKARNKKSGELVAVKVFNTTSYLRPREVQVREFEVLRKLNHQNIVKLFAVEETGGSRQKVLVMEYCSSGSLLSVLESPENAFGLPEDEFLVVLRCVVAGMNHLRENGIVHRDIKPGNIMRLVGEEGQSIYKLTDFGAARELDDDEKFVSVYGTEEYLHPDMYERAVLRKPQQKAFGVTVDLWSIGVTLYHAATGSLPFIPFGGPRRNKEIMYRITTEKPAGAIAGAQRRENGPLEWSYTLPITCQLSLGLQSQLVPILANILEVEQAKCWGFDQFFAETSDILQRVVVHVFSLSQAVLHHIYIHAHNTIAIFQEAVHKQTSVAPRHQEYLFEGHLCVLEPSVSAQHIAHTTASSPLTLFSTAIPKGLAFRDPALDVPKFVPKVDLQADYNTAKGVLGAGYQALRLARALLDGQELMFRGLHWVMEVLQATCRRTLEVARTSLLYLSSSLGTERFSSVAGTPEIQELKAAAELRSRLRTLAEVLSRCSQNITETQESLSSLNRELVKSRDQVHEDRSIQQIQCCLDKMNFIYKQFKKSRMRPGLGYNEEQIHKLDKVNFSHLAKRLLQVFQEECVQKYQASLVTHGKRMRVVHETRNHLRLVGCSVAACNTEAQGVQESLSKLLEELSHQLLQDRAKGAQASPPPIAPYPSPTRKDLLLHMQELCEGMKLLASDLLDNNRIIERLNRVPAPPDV
Sequence of Casein kinase II subunit alpha (P68400 whole entry): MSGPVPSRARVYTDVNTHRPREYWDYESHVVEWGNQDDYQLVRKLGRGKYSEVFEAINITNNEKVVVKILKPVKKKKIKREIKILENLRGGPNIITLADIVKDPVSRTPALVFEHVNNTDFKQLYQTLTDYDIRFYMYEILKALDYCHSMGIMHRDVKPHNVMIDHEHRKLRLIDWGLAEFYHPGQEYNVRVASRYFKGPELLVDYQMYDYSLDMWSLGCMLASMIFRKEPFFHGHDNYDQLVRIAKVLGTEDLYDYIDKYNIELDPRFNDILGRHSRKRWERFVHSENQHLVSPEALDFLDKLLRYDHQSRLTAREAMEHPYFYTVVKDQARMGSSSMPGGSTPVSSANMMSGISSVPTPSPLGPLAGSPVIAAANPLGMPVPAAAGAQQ
Sequence of Dual specificity tyrosine-phosphorylation-regulated kinase 3 (O43781 whole entry): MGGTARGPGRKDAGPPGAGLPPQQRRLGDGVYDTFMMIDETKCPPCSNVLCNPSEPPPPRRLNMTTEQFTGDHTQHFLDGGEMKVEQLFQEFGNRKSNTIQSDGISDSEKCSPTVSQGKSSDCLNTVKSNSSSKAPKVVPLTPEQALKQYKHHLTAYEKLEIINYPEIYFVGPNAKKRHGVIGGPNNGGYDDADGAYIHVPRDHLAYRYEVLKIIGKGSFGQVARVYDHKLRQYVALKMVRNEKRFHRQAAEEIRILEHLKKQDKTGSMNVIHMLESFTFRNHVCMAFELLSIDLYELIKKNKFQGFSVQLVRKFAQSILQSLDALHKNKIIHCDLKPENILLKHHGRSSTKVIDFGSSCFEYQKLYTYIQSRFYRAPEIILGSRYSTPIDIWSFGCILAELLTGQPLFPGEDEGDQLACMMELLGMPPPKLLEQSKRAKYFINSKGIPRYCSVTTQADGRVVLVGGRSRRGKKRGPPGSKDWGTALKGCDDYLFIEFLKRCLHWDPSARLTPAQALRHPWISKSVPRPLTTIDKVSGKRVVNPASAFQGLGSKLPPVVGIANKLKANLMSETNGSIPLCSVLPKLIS
Sequence of Dual specificity protein kinase CLK4 (Q9HAZ1 whole entry): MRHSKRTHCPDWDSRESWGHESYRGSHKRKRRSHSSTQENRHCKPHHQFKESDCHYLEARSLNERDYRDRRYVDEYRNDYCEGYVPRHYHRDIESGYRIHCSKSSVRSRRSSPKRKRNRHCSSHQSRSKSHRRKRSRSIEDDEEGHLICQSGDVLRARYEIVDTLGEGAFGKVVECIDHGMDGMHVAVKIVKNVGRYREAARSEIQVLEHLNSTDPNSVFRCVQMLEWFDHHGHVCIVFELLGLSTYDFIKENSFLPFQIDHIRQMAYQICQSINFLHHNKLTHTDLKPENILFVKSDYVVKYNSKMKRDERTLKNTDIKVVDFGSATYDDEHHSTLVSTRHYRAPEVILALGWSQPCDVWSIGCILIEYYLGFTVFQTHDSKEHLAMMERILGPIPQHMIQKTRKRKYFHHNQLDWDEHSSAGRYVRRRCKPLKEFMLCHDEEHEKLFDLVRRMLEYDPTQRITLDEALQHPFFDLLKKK

Ki [1]: > 3.16 µM (inactive)
Ki [2]: > 3.16 µM (inactive)
Ki (LIM domain kinase 1): > 3.16 µM (inactive)
Ki [3]: > 2.51 µM (inactive)
SMILES: [2H]C([2H])([2H])Oc1cccc(C(C)NC(=O)c2sc(-c3ccncc3)nc2C)c1 (centres undefined)

Ki [4]: 501 nM (active)
Ki [5]: > 1.58 µM (inactive)
Ki [6]: > 2 µM (inactive)
Ki [7]: 39.8 nM (active)
Ki [8]: 316 nM (active)
Ki [9]: 158 nM (active)
Ki [10]: > 10 µM (inactive)
Ki [11]: > 3.98 µM (inactive)
Ki [12]: 15.8 nM (active)
Ki [13]: 10 nM (active)
Ki (SRSF protein kinase 1): > 5.01 µM (inactive)
Ki [14]: > 1.58 µM (inactive)
Ki [15]: > 6.31 µM (inactive)
SMILES: Cc1n[nH]c2ccc(-c3cncc(OCC(N)Cc4ccc(Cl)c(Cl)c4)c3)cc12 (centres undefined)

IC50 [16]: 4.07 µM (active)
IC50 (Caspase-3): 26.6 µM (active)
SMILES: COc1ccc(-n2c(NC(=O)c3ccco3)c(C#N)c3nc4ccccc4nc32)cc1
